Experimental data: patent US6489485B2, “Para-amine substituted phenylamide glucokinase activators” (Hoffmann-La Roche Inc., priority 2000, dated 2002)

Row | SMILES | melting point
1 | CCOC(=O)c1csc(NC(=O)C(CC2CCCC2)c2ccc(NC(=O)c3cccnc3)cc2)n1 (stereo not drawn) [Example 10, 2-(3-Cyclopentyl-2-{4-[(pyridine-3-carbonyl)-amino]-phenyl}propionylamino)-thiazole-4-carboxylic acid ethyl ester] | 222 to 223 °C
2 | CN(C)S(=O)(=O)Nc1ccc(C(CC2CCCC2)C(=O)Nc2nccs2)cc1 (stereo not drawn) [Example 8, N-{4-[2-Cyclopentyl-1-(thiazol-2-ylcarbamoyl)-ethyl]-phenyl}-dimethylsulfamide] | 110 to 112 °C
3 | CCOC(=O)Cc1csc(NC(=O)C(CC2CCCC2)c2ccc(NC(=O)c3cccnc3)cc2)n1 (stereo not drawn) [Example 11, [2-(3-Cyclopentyl-2-{4-[(pyridine-3-carbonyl)-amino]-phenyl}-propionylamino)-thiazol-4-yl]-acetic acid ethyl ester] | 195 to 200 °C
4 | COC(=O)C(=O)Nc1ccc(C(CC2CCCC2)C(=O)Nc2nccs2)cc1 (stereo not drawn) [Example 6, N-{4-[2-Cyclopentyl-1-(thiazol-2-ylcarbamoyl)-ethyl]-phenyl}-oxalamic acid methyl ester] | 95 to 98 °C
5 | O=C(Nc1ccc(C(CC2CCCC2)C(=O)Nc2nccs2)cc1)c1ccc([N+](=O)[O-])cc1 (stereo not drawn) [Example 5, N-{4-[2-Cyclopentyl-1-(thiazol-2-ylcarbamoyl)-ethyl]-phenyl}-4-nitro-benzamide] | 236 to 238 °C
6 | CC(=O)OCC(=O)Nc1ccc(C(CC2CCCC2)C(=O)Nc2nccs2)cc1 (stereo not drawn) [Example 7, Acetic acid {4-[2-cyclopentyl-1-(thiazol-2-ylcarbamoyl)-ethyl]-phenylcarbamoyl}-methyl ester] | 90 to 95 °C
7 | O=C(Cc1cccs1)Nc1ccc(C(CC2CCCC2)C(=O)Nc2nccs2)cc1 (stereo not drawn) [Example 2, 3-Cyclopentyl-N-thiazol-2-yl-2-[4-(2-thiophen-2-yl-acetylamino)-phenyl]-propionamide] | 220 to 221 °C
8 | O=C(Nc1ccc(C(CC2CCCC2)C(=O)Nc2ccccn2)cc1)c1cccnc1 (stereo not drawn) [Example 15, N-{4-[2-Cyclopentyl-1-(pyridin-2-ylcarbamoyl)-ethyl]-phenyl}-nicotinamide] | 160 to 163 °C
9 | CS(=O)(=O)Nc1ccc(C(CC2CCCC2)C(=O)Nc2nccs2)cc1 (stereo not drawn) [Example 12, 3-Cyclopentyl-2-(4-methanesulfonylamino-phenyl)-N-thiazol-2-yl-propionamide] | 85 to 90 °C
10 | O=C(Nc1nccs1)C(CC1CCCC1)c1ccc(NS(=O)(=O)c2ccc([N+](=O)[O-])cc2)cc1 (stereo not drawn) [Example 3, 3-Cyclopentyl-2-[4-(4-nitro-benzenesulfonylamino)-phenyl]-N-thiazol-2-yl-propionamide] | 120 to 125 °C
11 | O=C(Nc1nccs1)C(CC1CCCC1)c1ccc(NS(=O)(=O)C(F)(F)F)cc1 (stereo not drawn) [Example 13, 3-Cyclopentyl-N-thiazol-2-yl-2-(4-trifluoromethanesulfonylamino-phenyl)-propionamide] | 70 to 74 °C
12 | O=C(Nc1ccc(C(CC2CCCC2)C(=O)Nc2nccs2)cc1)c1cccnc1 (stereo not drawn) [Example 9, N-{4-[2-Cyclopentyl-1-(thiazol-2-ylcarbamoyl)-ethyl]-phenyl}-nicotinamide] | 240 to 242 °C
13 | COC(=O)c1ccc(NC(=O)C(CC2CCCC2)c2ccc(NC(=O)c3cccnc3)cc2)nc1 (stereo not drawn) [Example 16, 6-(3-Cyclopentyl-2-{4-[(pyridine-3-carbonyl)-amino]-phenyl}-propionylamino)-nicotinic acid methyl ester] | 110 to 111 °C
14 | O=C(Nc1ccc(C(CC2CCCC2)C(=O)Nc2nccs2)cc1)c1ccccc1 (stereo not drawn) [Example 1] | 285 to 290 °C
15 | O=C(Nc1ccc(C(CC2CCCC2)C(=O)Nc2nccs2)cc1)c1ccncc1 (stereo not drawn) [Example 4, N-{4-[2-Cyclopentyl-1-(thiazol-2-ylcarbamoyl)-ethyl]-phenyl}-isonicotinamide] | 225 to 230 °C
